This passage reports TGI and GI50 results from PubChem BioAssay (NCI).

Holding throughout (assay): NCI tumour cell line growth inhibition, 48 h
The test system of assay [1] is 786-0 renal.
The subject of assay [2] is COLO 205 colon.
In assay [3] the test system is HCT-15 colon.
The subject of assay [4] is HT29 colon.
Assay [5] has as its system KM12 colon.
The subject of assay [6] is M14 melanoma.
The subject of assay [7] is MDA-MB-231 breast.
Assay [8] concerns MDA-N.
Assay [9] deals with MOLT-4 leukemia.
Assay [10] concerns NCI-H522 lung.
Assay [11] has as its system OVCAR-3 ovarian.
The subject of assay [12] is RPMI-8226 leukemia.
Assay [13] deals with SK-MEL-2 melanoma.
In assay [14] the test system is SK-MEL-5 melanoma.
For assay [15], the system named is SR leukemia.
Assay [16] concerns T-47D breast.
Assay [17] has as its system UACC-62 melanoma.
The test system of assay [18] is HOP-62 NSCLC.

Each structure is given as a SMILES string. “And” between values parts separate entries of the source, which are not always exact repeats. Equal values may be shown once.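 The compound was tested at five concentrations on cells cultured in 96-well plates, with a 48-hour exposure period. GI50: concentration for 50% inhibition of growth. At the TGI there is no net growth.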

As to `O=c1cc(NNc2ccccc2F)[nH]c(=O)[nH]1`, the TGI in assay [1] worked out at 28.7 µM; in assay [2], 33.8 µM; in [3], 29.6 µM; in assay [4], 34.9 µM; in [5], 28.7 µM; in [6] it was 31.5 µM. For the same compound, the TGI was 29.9 µM in assay [7]; 32.5 µM in [8]; 54 µM in [9]; 31.5 µM in [10]; 31.6 µM in [11]; 46.2 µM in assay [12]. Besides, the TGI in assay [13] is 30.8 µM; in assay [14] it was 49.5 µM; in [15] it was 7.37 µM; in assay [16], 18 µM; in assay [17] it was 30.9 µM.
Regarding `CCOC(=O)c1sc2c(c1O)c(=O)n(-c1ccccc1)c(=S)n2-c1ccccc1`, the TGI in assay [1], in [2], in assay [3], in assay [4], in assay [5] and in assay [6] was more than 100 µM throughout. In addition, the TGI in assay [7], in assay [8], in assay [10], in [11], in [12] and in [13] was more than 100 µM throughout. Besides, the TGI is more than 100 µM in [14], 46.9 µM in assay [15], more than 100 µM in assay [16] and more than 100 µM in assay [17].
In the case of `COc1cc(C2c3[nH]c4ccccc4c3[C@@H](Nc3ccc(C#N)cc3)[C@H]3COC(=O)N23)cc(OC)c1O` (some centres not stated), the TGI was 0.337 µM in assay [1]; more than 3.81 µM in assay [2]; 5.56 µM in assay [3]; 1.54 µM in assay [18]; more than 10 µM in assay [4]; 1.58 µM in assay [6]. The TGI in assay [7] worked out at 2.14 µM; in assay [8], 1.57 µM; in assay [9], 0.0634 µM; in [10] it was 0.547 µM; in [11] it was 2.21 µM; in assay [12], 0.688 µM. The TGI in assay [13] came out at 0.752 µM; in [14], 0.321 µM; in [15], 0.059 µM; in [16] it was 3.5 µM; in [17], 0.651 µM.
Turning to `COc1cc(C2SCC(=O)N2c2ccc(NC(C)=O)cc2)cc(OC)c1OC` (configuration not stated), the TGI in assay [1], in assay [2], in [3], in assay [4], in assay [5] and in assay [6] was more than 100 µM throughout. Besides, the TGI in assay [7], in assay [8], in [9], in [10], in [11] and in assay [12] was more than 100 µM in each case. Further, the TGI in assay [13], in assay [14], in assay [15], in [16] and in assay [17] was more than 100 µM throughout.
Consider `NS(=O)(=O)c1nnc(NC(=O)c2cccc([N+](=O)[O-])c2)s1`, for which the TGI in [1], in assay [2], in [3], in [18], in assay [5] and in assay [6] was more than 100 µM throughout. Also, the TGI in assay [7], in assay [8], in assay [9], in assay [10], in [11] and in [12] was more than 100 µM in each case. For the same compound, the TGI in assay [13], in [14], in assay [15], in assay [16] and in assay [17] was more than 100 µM each time.
As for `CCCCC(/C=C\COC1CCCCO1)=C/C(=O)OCC` (configuration not stated), the TGI in assay [1], in assay [2], in assay [3], in assay [18], in assay [4] and in [5] was more than 100 µM in each case. The TGI was more than 100 µM in [6]; more than 100 µM in assay [7]; more than 100 µM in assay [8]; 71.5 µM in [9]; more than 100 µM in assay [10]; more than 100 µM in assay [11]. Moreover, the TGI in [12], in assay [13], in assay [14], in assay [15], in assay [16] and in assay [17] was more than 100 µM throughout.
With `CC1OC(OC2C(OC(=O)[C@]34CCC(C)(C)C[C@H]3C3=CC[C@@H]5[C@@]6(C)CC[C@H](OC7OC(CO)C(O)C(O)C7OC7OC(CO)C(O)C(O)C7O)C(C)(C)[C@@H]6CC[C@@]5(C)[C@]3(C)CC4)OCC(O)C2O)C(O)C(O)C1OC1OCC(O)C(OC2OCC(O)C(O)C2O)C1O` (some centres not stated), the TGI in [1] was 18.9 µM and 19.7 µM; in [2], 3.42 µM and 6.5 µM; in assay [3] it was 27 µM and 26.8 µM; in assay [18], 23.3 µM and 11.2 µM; in assay [4] it was 10.8 µM and 9.01 µM; in [5], 11.8 µM and 12.5 µM. The TGI in assay [6] is 3.98 µM and 3.49 µM; in assay [7], 8.71 µM and 9.09 µM; in [8], 3.58 µM and 3.09 µM; in assay [9], 22.4 µM and 26.6 µM; in [10], 7.68 µM and 6.53 µM; in [11], 22.3 µM and 34.6 µM. Further, the TGI was 16.1 µM and 17.4 µM in [12]; 8.07 µM and 8.23 µM in assay [13]; 8.11 µM and 10.3 µM in [14]; 8.14 µM and 8.97 µM in [15]; 21.8 µM and 16.6 µM in assay [16]; 6.58 µM and 4.71 µM in assay [17]. Further, the GI50 in [18] is 9.23 µM and 3.83 µM; in assay [9], 2.87 µM and 9.41 µM.
